According to patent US20240124434A1, “ATF6 INHIBITORS AND USES THEREOF” (Altos Labs, Inc., priority 2018, published 2024):
Converted amounts (≈) assume the structure as drawn. Like-named read-outs stand apart in the source and are kept apart here.

What was measured:
[1] = mouse, in vivo, po, 10 mg/kg; for AUCExtr [%] / F [%] / Vz: Balb/c
Description: (§3) Tested compounds were formulated at 1 mg/mL as a dosing solution for oral administration in vehicle A: 10% dimethylacetamide (DMAC), 20% propylene glycol, and 40% PEG-400 or vehicle B: 10% Kolliphor® EL and 10% ethanol (EtOH).
(§4) Animals were acclimated for a minimum period of 4 days upon arrival at the testing facility.
(§5) At the day of study, mice were weighed, identified by marking the tail with numbers using a non-toxic permanent marker, and designated into ten experimental groups (n=3 per group).
(§6) Non-dosed mice were used to collect samples of zero time points. […] Blood samples were centrifuged immediately at 9,000 g at 4° C. for 5 minutes and then plasmas were separated. Plasma samples were placed into individually labeled cryovials and stored in a −80° C. freezer until LC/MS/MS bioanalysis.
(§7) The bioanalysis of plasma samples was conducted with a QTRAP 4500 triple quadrupole mass spectrometer (Applied Biosystems SCIEX) in the positive ion mode and interfaced with an Ekspert Ultra LC100 UPLC System (Eksigent). Calibration standards (0.01 to 10 μM) and QCs (0.02, 0.2 and 2.0 μM) were prepared from naïve mouse plasma in parallel with mouse plasma study samples (60 μL) by precipitation with three volumes of ice cold internal standard solution (acetonitrile containing 20 μM of theophylline). The precipitated samples were centrifuged at 6,100 g for 30 min. Following centrifugation, an aliquot of each supernatant was transferred to an autosampler plate and diluted with two volumes of aqueous mobile phase (0.1% formic acid in water). Samples were injected onto a reverse phase analytical column (YMC Triart C18; 2.0×50 mm; 1.9 μm; YMC CO) and eluted with a gradient of 0.1% formic acid in Acetonitrile. Assayed test compound and internal standards were monitored by a multiple reaction monitoring (MRM) experiment using an Analyst software (v1.6.2, Applied Biosystems SCIEX). Quantitation was conducted using a MultiQuant software (v2.1, Applied Biosystems SCIEX) and the resulting calibration curve was fitted with a linear regression and 1/x weighting. The lower limits of quantitation were 1<LLQ <5 ng/mL.

ATF6 = assay: ERSE ATF6-luciferase reporter assay (thapsigargin-induced ER stress); assay type: cell-based, human; conditions: for inhibition at 1 µM: 8 hr
[2] = In vitro microsomal stability, human liver microsomes; assay type: in vitro ADME; conditions: for Rem. @ hLM (%): remaining fraction after 30 min, 1 μM compound, 0.5 mg/mL human liver microsomes, 1 mM NADPH
Description: (§1) Compounds were incubated at a final concentration of 1 μM with 0.5 mg/mL human liver microsomes (hLM) (#HMMCPL; Thermo), mouse liver microsomes (mLM) (#MSMCPL; Thermo) or rat liver microsomes (rLM) (#RTMCPL; Thermo) and 1 mM reduced dihydronicotinamide-adenine dinucleotide phosphate (NADPH) (#N1630; Sigma) in 100 mM phosphate buffer (pH 7.4) at 37° C. The reactions were terminated at 0, 5, 15 and 30 min by the addition of cold acetonitrile containing 50 ng/mL propranolol as an internal standard. […] Verapamil hydrochloride (#V4369 Aldrich) was used as a positive control in all studies.

CYP1A2 = CYP1A2 (Homo sapiens (Human), UniProt P05177); assay: CYP inhibition in human liver microsomes
Description: (§2) CYP inhibition by test compounds in human liver microsomes (HLM) for seven major CYP450 isoforms CYP1A2, CYP2C9, CYP2D6, CYP2B6, CYP2C8, CYP2C19 and CYP3A4 were assessed. […] 50 μM phenacetin, 2 μM midazolam, 5 μM diclofenac, 50 μM mephenytoin, 80 μM bupropion, and 5 μM dextromethorphan were used as probe substrates of CYP1A2, CYP3A4, CYP2C9, CYP2C19, CYP2B6, and CYP2D6, respectively. The incubation times were 20 min for […], CYP2D6, CYP2C9, CYP2B6, and CYP2C8; 40 min for CYP2C19; and 10 min for CYP 3A4. Following incubations, the reactions were terminated with acetonitrile containing internal standard. The samples were centrifuged and the supernatants were analyzed for the formation of metabolites (1-hydroxymidazolam (CYP3A4), 4-hydroxydiclofenac (CYP2C9), 4-hydroxymephenytoin (CYP2C19) and dextrorphan (CYP2D6), hydroxybupropion (CYP2B6), acetaminophen (CYP1A2), desethylamodiaquine (CYP2C8)) by LC/MS/MS.

CYP3A4 = CYP3A4 (Homo sapiens (Human), UniProt P08684); assay: CYP inhibition in human liver microsomes
Description: as §2

CYP2C9 = CYP2C9 (Homo sapiens (Human), UniProt P11712); assay: CYP inhibition in human liver microsomes
Description: as §2

CYP2B6 = CYP2B6 (Homo sapiens (Human), UniProt P20813); assay: CYP inhibition in human liver microsomes
Description: as §2

CYP2D6 = CYP2D6 (Homo sapiens (Human), UniProt P10635); assay: CYP inhibition in human liver microsomes
Description: as §2

CYP2C19 = CYP2C19 (Homo sapiens (Human), UniProt P33261); assay: CYP inhibition in human liver microsomes
Description: as §2

[3] = In vitro microsomal stability, rat liver microsomes; assay type: in vitro ADME; conditions: for half-life at 1 μM / half-life at […], 1 µM: rat, read-out: T1/2 @ rLM; for Rem. @ rLM (%): remaining fraction after 30 min, 1 μM compound, 0.5 mg/mL rat liver microsomes, 1 mM NADPH
Description: as §1

[4] = Kinetic solubility (nephelometry); assay type: physicochemical; conditions: aqueous buffer, kinetic from dmso stock; PBS pH 7.4, 1% DMSO, 1 hour at 37° C., light scattering at 625 nm
Description: Concentration (μM) was then calculated by segmental regression. Amiodarone (#A8423 Aldrich) was used as positive control.

[5] = In vitro microsomal stability, mouse liver microsomes; assay type: in vitro ADME; conditions: for Rem. @ mLM (%): remaining fraction after 30 min, 1 μM compound, 0.5 mg/mL mouse liver microsomes, 1 mM NADPH
Description: as §1

in vivo = conditions: Balb/c, mouse, po, 10 mg/kg
Description: as §3, §4, §5, §6, §7

CYP2C8 = CYP2C8 (Homo sapiens (Human), UniProt P10632); assay: CYP inhibition in human liver microsomes; conditions: read-out: CYP-2C8, metabolite desethylamodiaquine
Description: as §2

[6] = human, human liver microsomes, pH 7.4, read-out: T1/2 @ hLM
[7] = pH 7.4, intrinsic clearance, human liver microsomes, read-out: Clint @ hLM
[8] = pH 7.4, intrinsic clearance, rat liver microsomes, read-out: Clint @ rLM
[9] = mouse, mouse liver microsomes, pH 7.4, read-out: T1/2 @ mLM
[10] = pH 7.4, intrinsic clearance, mouse liver microsomes, read-out: Clint @ mLM
[11] = Homo sapiens, U2OS, 8 h, read-out: Inh. ATF6-Luc @ 1 μM [%], 1 μM test compound, thapsigargin-induced ER stress, U2-OS ATF6 luc reporter cells
[12] = Homo sapiens, U2OS, read-out: IC50 ATF6-Luc reporter [μM], dose-response 30 μM to 1 nM, thapsigargin-induced ER stress, U2-OS ATF6 luc reporter cells
[13] = read-out: CYP-3A4, human liver microsomes, probe substrate midazolam
[14] = read-out: CYP-2C9, human liver microsomes, probe substrate diclofenac
[15] = read-out: CYP-2B6, human liver microsomes, probe substrate bupropion
[16] = read-out: CYP-2D6, human liver microsomes, probe substrate dextromethorphan
[17] = read-out: CYP-2C19, human liver microsomes, probe substrate mephenytoin
[18] = Homo sapiens, U2OS, dose-response 30 μM to 1 nM, thapsigargin-induced ER stress, U2-OS ATF6 luc reporter cells, read-out: IC50 ATF6-Luc reporter
[19] = Homo sapiens, U2OS, 1 μM test compound, thapsigargin-induced ER stress, U2-OS ATF6 luc reporter cells, read-out: Inh. ATF6-Luc @ 1 μM [%]
[20] = read-out: CYP-1A2, human liver microsomes, probe substrate phenacetin

CYP2C8, sequence (P10632 whole entry): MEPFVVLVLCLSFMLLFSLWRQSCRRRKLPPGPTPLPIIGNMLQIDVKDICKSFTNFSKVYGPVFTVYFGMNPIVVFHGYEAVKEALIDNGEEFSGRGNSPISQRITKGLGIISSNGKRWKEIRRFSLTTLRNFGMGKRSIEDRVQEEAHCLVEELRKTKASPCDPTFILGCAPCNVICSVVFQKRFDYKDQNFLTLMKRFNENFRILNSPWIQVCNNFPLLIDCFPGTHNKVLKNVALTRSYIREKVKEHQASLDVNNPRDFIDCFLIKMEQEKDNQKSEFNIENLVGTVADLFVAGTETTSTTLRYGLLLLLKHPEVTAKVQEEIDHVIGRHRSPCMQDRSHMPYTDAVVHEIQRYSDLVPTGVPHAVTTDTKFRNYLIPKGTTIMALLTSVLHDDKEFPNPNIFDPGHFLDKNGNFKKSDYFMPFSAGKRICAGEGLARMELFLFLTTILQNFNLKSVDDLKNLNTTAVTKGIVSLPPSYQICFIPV
CYP2C19, sequence (P33261 whole entry): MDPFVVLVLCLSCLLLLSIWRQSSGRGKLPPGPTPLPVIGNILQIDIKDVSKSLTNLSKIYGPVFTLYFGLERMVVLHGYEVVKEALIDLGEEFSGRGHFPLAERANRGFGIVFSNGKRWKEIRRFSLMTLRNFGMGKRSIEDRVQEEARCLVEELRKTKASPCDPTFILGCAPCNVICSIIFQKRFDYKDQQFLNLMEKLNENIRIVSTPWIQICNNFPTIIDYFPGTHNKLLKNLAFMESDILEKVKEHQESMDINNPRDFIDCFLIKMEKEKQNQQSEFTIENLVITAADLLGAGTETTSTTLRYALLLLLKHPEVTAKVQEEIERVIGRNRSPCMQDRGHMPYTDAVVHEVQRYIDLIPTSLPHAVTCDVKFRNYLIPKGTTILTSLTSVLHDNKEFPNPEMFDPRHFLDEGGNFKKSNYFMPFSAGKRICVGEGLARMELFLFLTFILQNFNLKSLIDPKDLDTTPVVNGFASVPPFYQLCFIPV
CYP2D6, sequence (P10635 whole entry): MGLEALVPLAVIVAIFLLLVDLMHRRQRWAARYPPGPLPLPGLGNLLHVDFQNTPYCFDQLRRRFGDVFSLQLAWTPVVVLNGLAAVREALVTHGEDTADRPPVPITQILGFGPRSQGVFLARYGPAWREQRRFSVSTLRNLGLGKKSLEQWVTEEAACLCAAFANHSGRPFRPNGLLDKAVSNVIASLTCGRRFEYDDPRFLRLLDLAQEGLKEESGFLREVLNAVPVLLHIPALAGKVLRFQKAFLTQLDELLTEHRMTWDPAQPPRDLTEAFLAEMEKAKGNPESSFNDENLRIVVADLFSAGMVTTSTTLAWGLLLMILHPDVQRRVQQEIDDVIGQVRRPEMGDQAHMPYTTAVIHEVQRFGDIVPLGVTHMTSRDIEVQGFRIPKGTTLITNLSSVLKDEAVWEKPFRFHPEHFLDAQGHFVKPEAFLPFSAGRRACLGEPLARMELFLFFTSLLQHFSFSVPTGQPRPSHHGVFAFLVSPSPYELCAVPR
CYP3A4, sequence (P08684 whole entry): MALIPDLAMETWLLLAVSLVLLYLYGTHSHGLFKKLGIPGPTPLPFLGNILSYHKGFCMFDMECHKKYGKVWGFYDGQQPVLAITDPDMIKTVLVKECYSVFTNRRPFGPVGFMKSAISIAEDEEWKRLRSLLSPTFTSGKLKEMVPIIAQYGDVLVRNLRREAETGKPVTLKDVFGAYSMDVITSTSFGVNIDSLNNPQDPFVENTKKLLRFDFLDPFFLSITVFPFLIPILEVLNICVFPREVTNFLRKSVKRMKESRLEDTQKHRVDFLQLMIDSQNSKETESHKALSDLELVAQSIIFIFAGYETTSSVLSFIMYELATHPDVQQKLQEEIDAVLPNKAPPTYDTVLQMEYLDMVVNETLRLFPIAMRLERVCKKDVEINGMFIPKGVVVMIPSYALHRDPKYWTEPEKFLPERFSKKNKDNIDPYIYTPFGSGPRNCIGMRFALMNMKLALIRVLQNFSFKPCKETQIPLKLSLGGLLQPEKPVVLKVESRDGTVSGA
CYP2B6, sequence (P20813 whole entry): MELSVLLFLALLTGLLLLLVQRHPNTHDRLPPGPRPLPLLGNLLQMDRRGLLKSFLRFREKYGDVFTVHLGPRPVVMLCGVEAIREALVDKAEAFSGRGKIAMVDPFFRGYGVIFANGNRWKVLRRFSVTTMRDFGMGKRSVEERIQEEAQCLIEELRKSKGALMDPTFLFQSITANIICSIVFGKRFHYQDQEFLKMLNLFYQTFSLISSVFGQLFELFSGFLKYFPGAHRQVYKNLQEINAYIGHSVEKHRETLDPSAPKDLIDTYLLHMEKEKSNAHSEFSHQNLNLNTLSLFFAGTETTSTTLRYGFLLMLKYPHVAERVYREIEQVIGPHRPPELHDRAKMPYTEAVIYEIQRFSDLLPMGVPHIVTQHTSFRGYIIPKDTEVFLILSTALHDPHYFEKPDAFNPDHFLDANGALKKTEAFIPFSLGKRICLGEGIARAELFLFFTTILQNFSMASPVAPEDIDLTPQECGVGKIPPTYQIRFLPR
CYP2C9, sequence (P11712 whole entry): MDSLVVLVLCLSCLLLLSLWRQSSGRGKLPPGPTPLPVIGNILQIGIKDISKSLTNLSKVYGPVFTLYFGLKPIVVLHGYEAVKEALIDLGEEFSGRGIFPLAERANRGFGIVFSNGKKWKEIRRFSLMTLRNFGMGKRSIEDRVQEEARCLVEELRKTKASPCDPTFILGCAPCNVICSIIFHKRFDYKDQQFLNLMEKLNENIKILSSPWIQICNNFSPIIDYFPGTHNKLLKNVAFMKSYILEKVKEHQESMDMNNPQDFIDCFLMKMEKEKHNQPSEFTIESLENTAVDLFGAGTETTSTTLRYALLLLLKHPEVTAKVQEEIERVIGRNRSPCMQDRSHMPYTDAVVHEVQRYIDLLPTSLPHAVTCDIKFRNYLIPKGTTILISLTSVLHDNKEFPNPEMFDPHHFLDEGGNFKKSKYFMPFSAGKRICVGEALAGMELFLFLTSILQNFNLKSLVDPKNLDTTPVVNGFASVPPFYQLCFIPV
CYP1A2, sequence (P05177 whole entry, canonical isoform): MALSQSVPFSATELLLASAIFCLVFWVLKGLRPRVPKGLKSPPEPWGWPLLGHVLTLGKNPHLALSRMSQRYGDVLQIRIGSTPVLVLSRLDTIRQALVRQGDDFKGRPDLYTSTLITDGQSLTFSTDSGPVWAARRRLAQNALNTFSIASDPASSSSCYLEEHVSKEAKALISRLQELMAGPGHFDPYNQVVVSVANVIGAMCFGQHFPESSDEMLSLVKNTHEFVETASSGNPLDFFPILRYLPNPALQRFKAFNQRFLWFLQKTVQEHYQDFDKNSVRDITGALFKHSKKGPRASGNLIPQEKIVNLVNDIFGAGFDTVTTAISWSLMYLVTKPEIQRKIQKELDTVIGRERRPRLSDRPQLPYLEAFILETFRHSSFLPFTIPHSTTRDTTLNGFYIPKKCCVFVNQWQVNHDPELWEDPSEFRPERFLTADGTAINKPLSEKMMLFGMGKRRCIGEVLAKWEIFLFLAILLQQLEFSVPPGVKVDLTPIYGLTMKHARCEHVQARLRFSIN

Row | Compound | AUCExtr [%] [1] [%] | F [%] [1] [%] | Last time point for AUClast [1] [h] | Rem. @ hLM (%) [2] [%] | Rem. @ rLM (%) [3] [%] | solubility kinetic at 1 h [4] [µM] | Rem. @ mLM (%) [5] [%] | AUC(0-inf) (in vivo) [ng·h/mL] | AUC(0-t) (in vivo) [ng·h/mL] | half-life at […], 1 µM [2, 6] [h] | microsomal CLint at […], 1 µM [2, 7] [µL/min/mg] | IC50 (CYP2C8) [µM] | IC50 (CYP3A4; [13]) [µM] | IC50 (CYP2C9; [14]) [µM] | IC50 (CYP2B6; [15]) [µM] | IC50 (CYP2D6; [16]) [µM] | IC50 (CYP2C19; [17]) [µM] | microsomal CLint at […], 1 µM [3, 8] [µL/min/mg] | half-life at […], 1 µM [5, 9] [h] | microsomal CLint at […], 1 µM [5, 10] [µL/min/mg] | further results
1 | CC(c1ccc(C(F)(F)F)cc1C(F)(F)F)n1cc(NC(=O)c2cc(-c3ccco3)on2)cn1 (single isomer, unassigned) [“Enantiomer A” of Example S6, N-(1-(1-(2,4-bis(trifluoromethyl)phenyl)ethyl)-1H-pyrazol-4-yl)-5-(furan-2-yl)isoxazole-3-carboxamide] | 1.73 | 9.6 | 8 | 41.8 | 1.4 | 27 (≈ 13.1 µg/mL) | 3.05 | 626 | 615 | – | – | – | – | – | – | – | – | – | – | – | IC50 (ATF6): < 1 µM; Inh. ATF6-Luc @ 1 μM [%] (ATF6; 8 h, 1 µM): +++ (+++ refers to >50% inhibition at 1 μM test compound); half-life at 1 μM [2, 6]: 0.4 h; microsomal CLint at 1 μM [2, 7]: 57.8 µL/min/mg; IC50 (CYP1A2): 15.3 µM; IC50 (CYP3A4): > 50 µM; IC50 (CYP2C9): 7.88 µM; IC50 (CYP2B6): 4.18 µM; IC50 (CYP2D6): 23.7 µM; IC50 (CYP2C19): 3.54 µM; microsomal CLint at 1 μM [3, 8]: 283 µL/min/mg; half-life at 1 μM ([3]; rat liver microsomes, pH 7.4): 0.0815 h; half-life at 1 μM [5, 9]: 5.97 min; microsomal CLint at 1 μM [5, 10]: 232 µL/min/mg; Cmax (in vivo): 579 ng/mL; Tmax (in vivo): 0.5 h; half-life (in vivo): 1.6 h
2 | C[C@H](c1ccc(C(F)(F)F)cc1C(F)(F)F)n1cc(NC(=O)c2cc(-c3ccccn3)no2)cn1 [Compound 76, (R)—N-(1-(1-(2,4-bis(trifluoromethyl)phenyl)ethyl)-1H-pyrazol-4-yl)-3-(pyridin-2-yl)isoxazole-5-carboxamide] | 2.55 | 50.6 | 24 | 69.7 | 59.4 | 7.03 (≈ 3.48 µg/mL) | 74.9 | 45300 | 44100 | 0.96 | 24.1 | 1.14 | > 50 | 6 | 6.45 | 7.54 | 3.6 | 34.7 | 1.2 | 19.3 | Vz [1]: 1.45 L/kg; inhibition at 1 µM (ATF6; [11]): > 50%; IC50 (ATF6; [12]): < 1 µM; half-life at […], 1 µM ([3]; rat liver microsomes, pH 7.4): 0.665 h; Cmax (in vivo): 5180 ng/mL; Tmax (in vivo): 1 h; half-life (in vivo): 4.54 h
3 | CC(c1ccc(C(F)(F)F)cc1C(F)(F)F)n1cc(NC(=O)c2cnc(-c3ccccn3)s2)cn1 (stereo not drawn) [Compound 78, N-(1-(1-(2,4-bis(trifluoromethyl)phenyl)ethyl)-1H-pyrazol-4-yl)-2-(pyridin-2-yl)thiazole-5-carboxamide] | – | – | – | 80.4 | 71.6 | – | 76.8 | – | – | 1.59 | 14.5 | 1.8 | > 50 | 5.48 | 4.97 | 2.78 | 5.27 | 22.3 | 1.31 | 17.6 | IC50 (ATF6; [18]): 1 to 10 µM; inhibition at 1 µM (ATF6; [19]): < 25%; IC50 (CYP1A2; [20]): 22.4 µM; half-life at […], 1 µM ([3]; rat liver microsomes, pH 7.4): 1.04 h
4 | O=C(Nc1cnn(Cc2ccc(C(F)(F)F)cc2C(F)(F)F)c1)c1cc(-c2cnccn2)on1 [Compound 114, N-(1-(2,4-bis(trifluoromethyl)benzyl)-1H-pyrazol-4-yl)-5-(pyrazin-2-yl)isoxazole-3-carboxamide] | 14 | 43.3 | 24 | 90.4 | 69.7 | 1.17 (≈ 0.564 µg/mL) | 86.8 | 11900 | 10300 | 3.55 | 6.5 | > 50 | > 50 | > 50 | > 50 | > 50 | > 50 | 25 | 2.75 | 8.4 | Vz [1]: 10.5 L/kg; inhibition at 1 µM (ATF6; [11]): > 50%; IC50 (ATF6; [12]): < 1 µM; half-life at […], 1 µM ([3]; rat liver microsomes, pH 7.4): 0.923 h; Cmax (in vivo): 899 ng/mL; Tmax (in vivo): 0.5 h; half-life (in vivo): 8.66 h
5 | C[C@H](c1ccc(C(F)(F)F)cc1C(F)(F)F)n1cc(NC(=O)c2nnc(-c3ccccn3)s2)cn1 [Compound 123, (R)—N-(1-(1-(2,4-bis(trifluoromethyl)phenyl)ethyl)-1H-pyrazol-4-yl)-5-(pyridin-2-yl)-1,3,4-thiadiazole-2-carboxamide] | 37.7 | 64.1 | 24 | 95.5 | 81.5 | 1.17 (≈ 0.6 µg/mL) | 89.7 | 62200 | 38800 | 7.67 | 3 | 33.3 | > 50 | 31.9 | 42.9 | > 50 | > 50 | 10.7 | 3.22 | 7.2 | Vz [1]: 4.43 L/kg; inhibition at 1 µM (ATF6; [11]): > 50%; IC50 (ATF6; [12]): < 1 µM; half-life at […], 1 µM ([3]; rat liver microsomes, pH 7.4): 2.17 h; Cmax (in vivo): 4560 ng/mL; Tmax (in vivo): 1 h; half-life (in vivo): 19.1 h
6 | CC(c1ccc(C(F)(F)F)cc1C(F)(F)F)n1cc(NC(=O)c2nnc(-c3cnccn3)s2)cn1 (stereo not drawn) [Compound 136, N-(1-(1-(2,4-bis(trifluoromethyl)phenyl)ethyl)-1H-pyrazol-4-yl)-5-(pyrazin-2-yl)-1,3,4-thiadiazole-2-carboxamide] | – | – | – | 77.8 | 43.9 | 2.34 (≈ 1.2 µg/mL) | 78.7 | – | – | 1.57 | 15 | > 50 | > 50 | > 50 | > 50 | > 50 | > 50 | 44 | 1.77 | 13 | IC50 (ATF6; [18]): < 1 µM; inhibition at 1 µM (ATF6; [19]): > 50%; IC50 (CYP1A2; [20]): > 50 µM; half-life at 1 μM ([3]; rat liver microsomes, pH 7.4): 0.528 h
